Laboratory results: US20240199546A1, “INHIBITORS OF SOLUTE CARRIER FAMILY 6A MEMBER 19 (SLC6A19) AND METHODS OF USE THEREOF” (Maze Therapeutics, Inc., priority 2022, published 2024)

The compounds below were run against T1, human SLC6A19 and TMEM27 (Homo sapiens, UniProt Q695T7) (assay: Radiolabelled (3H) leucine uptake in CHO cells with doxycycline-inducible expression of human SLC6A19 and TMEM27 (Example B-1)). Details: CHO cells with doxycycline-inducible expression of human SLC6A19 and TMEM27, read-out: SLC6A19_Radioligand Uptake Assay IC50.
T1 construct: expressed in transfected cells
T1 sequence (Q695T7 1-634): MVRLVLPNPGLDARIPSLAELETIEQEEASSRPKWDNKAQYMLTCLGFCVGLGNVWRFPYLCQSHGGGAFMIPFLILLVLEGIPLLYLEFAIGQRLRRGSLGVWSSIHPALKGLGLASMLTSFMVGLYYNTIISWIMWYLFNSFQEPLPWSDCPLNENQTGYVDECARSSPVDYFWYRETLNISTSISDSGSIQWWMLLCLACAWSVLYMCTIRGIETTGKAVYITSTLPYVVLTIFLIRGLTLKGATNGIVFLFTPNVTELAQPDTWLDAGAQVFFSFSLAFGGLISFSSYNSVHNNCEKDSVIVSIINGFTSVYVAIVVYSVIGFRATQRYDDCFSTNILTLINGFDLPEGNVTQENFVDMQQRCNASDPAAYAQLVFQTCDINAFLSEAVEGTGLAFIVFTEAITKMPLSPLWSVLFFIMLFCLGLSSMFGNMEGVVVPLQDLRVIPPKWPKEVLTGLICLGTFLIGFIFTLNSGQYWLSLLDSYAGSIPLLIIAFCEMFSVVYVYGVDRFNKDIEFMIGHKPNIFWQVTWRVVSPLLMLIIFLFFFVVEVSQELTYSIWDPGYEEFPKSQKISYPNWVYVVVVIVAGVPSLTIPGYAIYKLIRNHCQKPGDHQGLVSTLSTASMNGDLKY
T1 sequence (Q9HBJ8 15-222 partner): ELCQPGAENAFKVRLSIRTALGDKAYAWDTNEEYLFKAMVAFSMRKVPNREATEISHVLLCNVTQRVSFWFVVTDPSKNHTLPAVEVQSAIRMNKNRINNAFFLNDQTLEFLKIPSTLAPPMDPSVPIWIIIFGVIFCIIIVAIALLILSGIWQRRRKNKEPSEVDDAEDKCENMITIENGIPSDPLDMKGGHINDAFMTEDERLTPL
Type: cell-based
Method: The flasks were then incubated (humidified, 37° C. with 5% CO2) for 2 minutes. After incubation, 10 mL of pre-warmed cell culture media was added to each flask. The cell suspension was collected and centrifuged for 5 minutes at 200×g. The supernatant was aspirated and the pellet was resuspended in 5 mL pre-warmed cell culture media. The resuspended cells were counted using the Countess Cell Counting Chamber (Invitrogen) and the cell concentration of the suspension was readjusted to 1 million live cells/mL using pre-warmed cell culture media. […] Assay plates were then incubated (humidified, 37° C. with 5% CO2) for 18 hours. After incubation, the media was aspirated and the wells were washed 4 times with pre-warmed HBSS (Sigma-Aldrich, H8264-1L) using an Apricot S-Pipette S2 (Apricot Designs), such that 5 uL/well HBSS was remaining at the end of each wash. […] At this step, the final in-well DMSO concentration in the assay plate is 0.5%. All compounds were plated in a duplicate 8-point dilution series that consisted of 3-fold dilutions. The plates were incubated with compound (humidified, 37° C. with 5% CO2) for 1 hour. […] The plates were then incubated (humidified, 37° C. with 5% CO2) on a plate shaker at 200 rpm for 2 hours. After incubation, the plates were removed from the shaker and kept at room temperature for 15 minutes. Liquid scintillation analysis was performed using the MicroBeta2 Microplate Counter (Perkin Elmer). Activity (%) was derived by normalizing the average of positive control compound treated wells to 0% and the average of DMSO (negative control) wells to 100%. Collaborative Drug Discovery software was used for graphing data.

Point of comparison: `Cc1cc(COc2cc3[nH]c(CNC(=O)[C@@H]4C[C@H]4F)cc3cc2Cl)on1` [Compound 537, (1S,2R)-N-((5-chloro-6-((3-methylisoxazol-5-yl)methoxy)-1H-indol-2-yl)methyl)-2-fluorocyclopropane-1-carboxamide], IC50 108 nM. Against it:
- Cc1cc(COc2cc3[nH]c(CNC(=O)[C@H]4C[C@H](O)C4)cc3cc2Cl)on1 [Compound 252, (1R,3R)-N-((5-chloro-6-((3-methylisoxazol-5-yl)methoxy)-1H-indol-2-yl)methyl)-3-hydroxycyclobutane-1-carboxamide] — 5.8-fold higher, 628 nM
- O=C(NCCO)NCc1cc2cc(Cl)c(OCc3cscn3)cc2[nH]1 [Compound 619, 1-((5-chloro-6-(thiazol-4-ylmethoxy)-1H-indol-2-yl)methyl)-3-(2-hydroxyethyl)urea] — higher, > 8440 nM
- CC(=O)NCc1cc2c(F)cc(OCc3cscn3)cc2[nH]1 [Compound 525, N-((4-fluoro-6-(thiazol-4-ylmethoxy)-1H-indol-2-yl)methyl)acetamide] — within 1.5-fold, 157 nM
- Cc1cc(COc2cc3[nH]c(CNC(=O)C4(C(F)F)CC4)cc3cc2Cl)on1 [Compound 565, N-((5-chloro-6-((3-methylisoxazol-5-yl)methoxy)-1H-indol-2-yl)methyl)-1-(difluoromethyl)cyclopropane-1-carboxamide] — 2.6-fold higher, 286 nM
- Cc1cc(COc2cc3[nH]c(CNC(=O)c4ccno4)cc3cc2Cl)on1 [Compound 522, N-((5-chloro-6-((3-methylisoxazol-5-yl)methoxy)-1H-indol-2-yl)methyl)isoxazole-5-carboxamide] — 1.8-fold higher, 199 nM
- O=C(NCc1cc2cc(C3CC3)c(OCc3ccon3)cc2[nH]1)N1CCC1 [Compound 653, N-((5-cyclopropyl-6-(isoxazol-3-ylmethoxy)-1H-indol-2-yl)methyl)azetidine-1-carboxamide] — 3.6-fold higher, 387 nM
- CC1(C(=O)NCc2cc3c(F)c(Cl)c(OCc4cscn4)cc3[nH]2)CC1 [Compound 17, N-((5-chloro-4-fluoro-6-(thiazol-4-ylmethoxy)-1H-indol-2-yl)methyl)-1-methylcyclopropane-1-carboxamide] — 3.4-fold higher, 362 nM
- CCOC(=O)NCc1cc2cc(Cl)c(OCc3cscn3)cc2[nH]1 [Compound 620, ethyl ((5-chloro-6-(thiazol-4-ylmethoxy)-1H-indol-2-yl)methyl)carbamate] — 1.7-fold higher, 182 nM
- Cc1cc(COc2cc3[nH]c(CNC(=O)[C@@H]4C[C@@H](F)CN4C)cc3cc2Cl)on1 [Compound 667, (2S,4R)—N-((5-chloro-6-((3-methylisoxazol-5-yl)methoxy)-1H-indol-2-yl)methyl)-4-fluoro-1-methylpyrrolidine-2-carboxamide] — 4.9-fold higher, 524 nM
- O=C(NCc1[nH]c2cc(OCc3cscn3)c(Cl)cc2c1Cl)N1CCC1 [Compound 474, N-((3,5-dichloro-6-(thiazol-4-ylmethoxy)-1H-indol-2-yl)methyl)azetidine-1-carboxamide] — 5.1-fold higher, 553 nM
- O=C(NCc1cc2cc(OC(F)(F)F)c(CCc3cscn3)cc2[nH]1)N1CCC1 [Compound 596, N-((6-(2-(thiazol-4-yl)ethyl)-5-(trifluoromethoxy)-1H-indol-2-yl)methyl)azetidine-1-carboxamide] — 3.1-fold higher, 336 nM
- CC(=O)NCc1cc2ccc(OCc3cc(C)no3)cc2[nH]1 [Compound 349, N-((6-((3-methylisoxazol-5-yl)methoxy)-1H-indol-2-yl)methyl)acetamide] — 27-fold higher, 2930 nM
- O=C(NCc1cc2c(F)cc(OCc3cscn3)cc2[nH]1)N1CCC1 [Compound 422, N-((4-fluoro-6-(thiazol-4-ylmethoxy)-1H-indol-2-yl)methyl)azetidine-1-carboxamide] — 3.1-fold higher, 337 nM
- CC(=O)NCc1cc2cc(Cl)c(OCC3CC3(F)F)cc2[nH]1 (stereo not drawn) [Compound 458, N-((5-chloro-6-((2,2-difluorocyclopropyl)methoxy)-1H-indol-2-yl)methyl)acetamide] — 71-fold higher, 7670 nM
- O=C(CC12CC(C1)C2)NCc1cc2cc(Cl)c(OCc3cscn3)cc2[nH]1 [Compound 555, 2-(bicyclo[1.1.1]pentan-1-yl)-N-((5-chloro-6-(thiazol-4-ylmethoxy)-1H-indol-2-yl)methyl)acetamide] — 28-fold higher, 3040 nM
- Cc1ccnc(COc2cc3[nH]c(CNC(=O)C4(C)CC4)cc3cc2Cl)c1 [Compound 22, N-((5-chloro-6-((4-methylpyridin-2-yl)methoxy)-1H-indol-2-yl)methyl)-1-methylcyclopropane-1-carboxamide] — 21-fold higher, 2240 nM
- O=C(NCc1cc2cc(F)c(OCc3cocn3)cc2[nH]1)N1CCCC1 [Compound 115, N-((5-fluoro-6-(oxazol-4-ylmethoxy)-1H-indol-2-yl)methyl)pyrrolidine-1-carboxamide] — 2.1-fold higher, 230 nM
- CCC(=O)NCc1cc2cc(F)c(OCc3ccon3)cc2[nH]1 [Compound 137, N-((5-fluoro-6-(isoxazol-3-ylmethoxy)-1H-indol-2-yl)methyl)propionamide] — 1.7-fold higher, 183 nM
- Cc1cc(COc2cc3[nH]c(CNC(=O)C(C)(C)O)cc3cc2Cl)on1 [Compound 249, N-((5-chloro-6-((3-methylisoxazol-5-yl)methoxy)-1H-indol-2-yl)methyl)-2-hydroxy-2-methylpropanamide] — 5-fold higher, 545 nM
- Cc1cc(COc2cc3[nH]c(CNC(=O)CC(F)F)cc3cc2Cl)on1 [Compound 519, N-((5-chloro-6-((3-methylisoxazol-5-yl)methoxy)-1H-indol-2-yl)methyl)-3,3-difluoropropanamide] — within 1.5-fold, 118 nM
- Cc1cc(COc2cc3[nH]c(CNC(=O)N4CCC(F)C4)cc3cc2Cl)on1 (racemic) [Compound 373, (R)-N-((5-chloro-6-((3-methylisoxazol-5-yl)methoxy)-1H-indol-2-yl)methyl)-3-fluoropyrrolidine-1-carboxamide and (S)-N-((5-chloro-6-((3-methylisoxazol-5-yl)methoxy)-1H-indol-2-yl)methyl)-3-fluoropyrrolidine-1-carboxamide] — 4.4-fold higher, 472 nM
- O=C(NCc1cc2cc(Cl)c(OCc3ccon3)cc2[nH]1)C1CC(F)(F)C1 [Compound 491, N-((5-chloro-6-(isoxazol-3-ylmethoxy)-1H-indol-2-yl)methyl)-3,3-difluorocyclobutane-1-carboxamide] — 7.5-fold higher, 814 nM
- CC1(C(=O)NCc2cc3cc(Cl)c(OCc4ccc5cc[nH]c5c4)cc3[nH]2)CC1 [Compound 350, N-((6-((1H-indol-6-yl)methoxy)-5-chloro-1H-indol-2-yl)methyl)-1-methylcyclopropane-1-carboxamide] — higher, > 8380 nM
- O=C(NCc1cc2cc(F)c(CCc3cscn3)cc2[nH]1)N1CCCC1 [Compound 601, N-((5-fluoro-6-(2-(thiazol-4-yl)ethyl)-1H-indol-2-yl)methyl)pyrrolidine-1-carboxamide] — 1.6-fold higher, 174 nM
- O=C(NCc1cc2cc(Cl)c(OCc3cscn3)cc2[nH]1)C1CCC1 [Compound 490, N-((5-chloro-6-(thiazol-4-ylmethoxy)-1H-indol-2-yl)methyl)cyclobutanecarboxamide] — 1.6-fold higher, 178 nM
- Cc1cc(COc2cc3[nH]c(CNC(=O)NC4CC4)cc3cc2Cl)on1 [Compound 636, 1-((5-chloro-6-((3-methylisoxazol-5-yl)methoxy)-1H-indol-2-yl)methyl)-3-cyclopropylurea] — 1.5-fold higher, 164 nM
- CC(C)OC(=O)NCc1cc2cc(Cl)c(OCc3cscn3)cc2[nH]1 [Compound 623, isopropyl ((5-chloro-6-(thiazol-4-ylmethoxy)-1H-indol-2-yl)methyl)carbamate] — 4.9-fold higher, 532 nM
- Cc1cc(COc2cc3[nH]c(CNC(=O)NC(C)C)cc3cc2Cl)on1 [Compound 638, 1-((5-chloro-6-((3-methylisoxazol-5-yl)methoxy)-1H-indol-2-yl)methyl)-3-isopropylurea] — 2.4-fold higher, 264 nM
- CC1(C(=O)NCc2cc3cc(Cl)c(COc4ccon4)cc3[nH]2)CC1 [Compound 613, N-((5-chloro-6-((isoxazol-3-yloxy)methyl)-1H-indol-2-yl)methyl)-1-methylcyclopropane-1-carboxamide] — within 1.5-fold, 82.4 nM
